{"source": "patent US12465630B2", "about": "“Small peptide compositions and uses thereof” (University of Pittsburgh—Of the Commonwealth System of …, priority 2018, dated 2025)", "key": {"cardiac fibroblasts [1]": {"tested_on": "cardiac fibroblasts", "test": "Motility (scratch) assay, cardiac fibroblasts", "assay_type": "cell-based, mouse", "protocol": "(§1) Primary cardiac fibroblasts and cardiomyocytes were isolated from both wild-type and CXCR3−/− neonatal mouse pups. After washing in PBS, hearts were stirred for 5 minutes in 0.5% trypsin at 37° C. to dissociate cells into solution. The suspended cells were then transferred to DMEM containing 20% fetal bovine serum (FBS) on ice to inactivate trypsin activity, and dissociation was repeated twice more with fresh trypsin solution. Cells were then washed and plated into 6-well plates at 1.25×10^6 cells/well, suspended in cardiac cell media (DMEM containing 7.5% dialyzed FBS and 1% antibiotic/antimitotic solution). After three hours, adhered fibroblasts were separated from the unattached cardiomyocytes through resuspension of the cells, and cardiomyocytes were plated separately at a density of 5×10^5 cells/ml.\n(§2) To determine the effect of IP-10p on TGFβ1-induced cell migration, motility assays were performed on cardiac fibroblasts, cardiomyocytes, and co-cultures (2:1 ratio of cardiomyocytes to fibroblasts). Cells were plated at 2.5×10^5 cells/well in a 12-well uncoated plate in depleted media (DMEM containing 0.5% FBS) 24 hours before beginning the experiment. A pipette tip was used to create a scratch in the monolayer and the plate was washed twice with PBS to remove scraped cells. Cells were then treated with TGFβ1 (R&D Systems, Minneapolis, MN) alone (10 ng/mL) to stimulate fibrosis, CXCL10 alone (10 μM), IP-10p alone (10 μM), TGFβ1+CXCL10, TGFβ1+IP-10p, or left untreated. Images were taken immediately after scratching and 24 hours later, and Adobe Photoshop was used to quantify wound motility as distance between wound edges relative to the initial scratch width."}, "cardiomyocytes": {"tested_on": "cardiomyocytes", "test": "Motility (scratch) assay, cardiomyocytes", "assay_type": "cell-based, mouse", "conditions": "TGFβ1 10 ng/mL + agent 10 μM, 24 h; FIG. 1A", "protocol": "as §1, §2"}, "cardiac fibroblasts (CF)": {"tested_on": "cardiac fibroblasts (CF)", "test": "Real time quantitative PCR relative gene expression, cardiac fibroblasts", "assay_type": "cell-based, mouse", "conditions": "peptide with CXCL10", "description": "(§3) CM and CF were isolated from wild type and CXCR3-null FVB neonatal mice. Following isolation, CM, CF, or CM/CF in both direct and indirect co-cultures were challenged with CM and CF activating growth factor transforming growth factor […]. Antagonist peptide treatments, CRF-5-3 and CRF-5-5, were given alone or in combination with CXCL10. To determine whether CRF-5-3 and CRF-5-5 block CXCL10 binding to its receptor, the ability of biotin-tagged CXCL10 and/or FITC-tagged CRF-5-5 to compete for binding to CM and CF was analyzed using flow cytometry. In vitro cellular function assays were assessed for migration, apoptosis, and extracellular matrix (ECM) secretion. Real time quantitative polymerase chain reaction was employed in order to determine modified relative gene expression of both CM and FB, following treatment."}, "cardiac fibroblasts [2]": {"tested_on": "cardiac fibroblasts", "test": "P38 MAPK-dependent extracellular matrix production in cardiac fibroblasts", "assay_type": "cell-based, mouse", "description": "as §3"}, "cardiomyocytes (CM)": {"tested_on": "cardiomyocytes (CM)", "test": "Real time quantitative PCR relative gene expression, cardiomyocytes", "assay_type": "cell-based, mouse", "conditions": "peptide with CXCL10", "description": "as §3"}, "[3]": {"tested_on": "cardiac fibroblasts (CF) and cardiomyocytes (CM)", "test": "In vitro cellular function assays on CM and CF (P38 signaling, motility, ECM)", "assay_type": "cell-based, mouse", "description": "as §3"}, "primary lung fibroblasts [4]": {"tested_on": "primary lung fibroblasts", "conditions": "for number of viable cells (Calcein-AM uptake): 1 to 1000 ng/mL, 24 hours", "protocol": "The effect of IP-10-related peptides on viability of lung fibroblasts was evaluated. Primary lung fibroblasts from healthy patients (SC31 and SC45) were either left untreated or treated with various concentrations of peptides (1 to 1000 ng/mL) for 24 hours. Treatment for 30 minutes with 70% ethanol in water was used as a positive control for dead cells. The Molecular Probes LIVE/DEAD Viability/Cytotoxicity Kit for mammalian cells (Invitrogen) was used to stain live cells. Following the manufacturer's protocol, at the end of treatment, cells in 96-well plates were washed with PBS, and then incubated in 2 μM Calcein-AM solution for 45 minutes at room temperature. Following incubation, the cells were imaged under a fluorescence microscope using the GFP channel. For quantification, ImageJ was used to count the number of live cells per field."}, "CM/CF co-cultures": {"tested_on": "CM/CF co-cultures", "test": "Histochemical and fluorescence analyses of ECM in CM/CF co-cultures", "assay_type": "cell-based, mouse", "description": "as §3"}, "primary lung fibroblasts [5]": {"tested_on": "primary lung fibroblasts", "test": "Scratch assay, TGF-β-induced fibroblast migration", "assay_type": "cell-based, human", "conditions": "TGF-β 10 ng/mL, 24 hours", "protocol": "Next, studies were performed to evaluate the effect of IP-10 related peptides on migration of lung fibroblasts in response to TGF-β. Primary lung fibroblasts from healthy patients were plated in 24-well plates in complete medium and incubated overnight. The next day, the medium was changed to quiescent medium and cells were incubated in this medium for 24 hours. The following day, a plus-shaped scratch was made across the cells using a 1000 μL pipette tip. An image was taken at a location that could be identified later. After imaging, cells were either left untreated, treated with 100 ng/mL peptide alone, treated with 10 ng/mL TGF-β, or treated with peptide and TGF-β and incubated for 24 hours. At the end of the incubation time, the cells were imaged in the same location as in the original image to visualize closure of the scratch. The denuded area was calculated using ImageJ software and the percent wound closure was calculated for each treatment group."}, "cardiac fibroblasts [6]": {"tested_on": "cardiac fibroblasts", "test": "Fibroblast activation assay (αSMA), cardiac fibroblasts", "assay_type": "cell-based, mouse", "conditions": "TGFβ1 10 ng/mL vs untreated control", "protocol": "as §1\nFibroblast activation to myofibroblasts is marked by αSMA expression within the cytoskeleton and serves as a marker to induce fibrosis. Cardiac fibroblasts were plated at 2,000 cells/well in an 8-well chamber slide and allowed to adhere overnight. After 24 hours, cells were washed and treated with: TGFβ1 alone (10 ng/ml), CXCL10 alone (10 μM), IP-10p alone (10 μM), TGFβ1+CXCL10, TGFβ1+IP-10p, or left untreated. After 24 hours, cells were fixed in ice cold methanol for 10 minutes and stained for αSMA (1:200, Abcam ab5694, Cambridge, UK) at 4° C. overnight, followed by a goat-anti-rabbit Alexa Fluor 594-conjugated secondary antibody (Abcam ab150080). After counterstaining with DAPI, cells were imaged, and fibroblast activation was measured using corrected total cell fluorescence (CTCF). These measurements were also performed in co-cultures of cardiomyocytes and cardiac fibroblasts (2:1 ratio)"}, "primary lung fibroblasts [7]": {"tested_on": "primary lung fibroblasts", "test": "qPCR of pro-fibrotic mRNAs in primary lung fibroblasts", "assay_type": "cell-based, human", "conditions": "TGF-β 10 ng/mL, 24 h", "protocol": "The next day, the medium was changed to quiescent medium and the cells were incubated in this medium for 24 hours. The following day, cells were either left untreated, treated with 10 ng/mL or 100 ng/mL of IP-10-1 (SEQ ID NO: 2), IP-10-2 (SEQ ID NO: 3) or IP-10-3 (SEQ ID NO: 4) peptide, treated with 10 ng/mL TGF-β, or treated with peptide and TGF-β for 24 hours. Total RNA was extracted using the Qiagen miRNeasy kit (Qiagen) and treated with DNase1, according to the manufacturer's instructions. RNA was then quantified and converted to cDNA using the Clontech RNA to cDNA EcoDry Double Primed Premix (Takara). qPCR was performed using PowerUp Sybr Green (Invitrogen) on an Applied Biosystems Quant Studio 3 instrument. Primers were from IDT and were designed using IDT Primer Quest and NCBI Primer Blast tools. The delta-delta Ct method was used to determine relative expression. GAPDH was used as a housekeeping gene."}, "[8]": {"tested_on": "co-cultures of cardiomyocytes and cardiac fibroblasts", "test": "Fibrotic extracellular matrix (ECM) secretion, co-cultures", "assay_type": "cell-based, mouse", "conditions": "agent alone vs unstimulated cultures, 48 h", "protocol": "as §1\nCardiac fibrosis is marked by overproduction of ECM proteins following injury. To observe the effect of IP-10p on secretion of these molecules, co-cultures of cardiomyocytes and cardiac fibroblasts were used to account for […] signaling taking place between the two dominant cell types in the heart. Fibroblasts and myocytes were plated at a 2:1 ratio using the same culture conditions and treatment groups described above for fibroblast activation. Following a 48-hour incubation with their respective treatments, cells were fixed, permeabilized and stained. Antibodies for collagen α1 type 1 (1:250, Santa Cruz Biotechnology SC8784, Dallas, TX), fibronectin (1:250, Abcam ab2413), and tenascin C (1:200, Abcam ab6346), followed by their appropriate secondary antibodies (Abcam ab150132, ab150077, and 150153, respectively), were used to determine fibrotic ECM secretion from the co-cultures. Expression of these molecules is expressed at CTCF and was quantified using MetaMorph® (Molecular Devices, Sunnyvale, CA)."}}, "note": "Entries after “also recorded” stand apart in the source; their conditions may differ. Ends that are not written are not given here.", "data": [{"molecule": "C-X-C chemokine ligand 10 [CXCL10]", "values": [{"measurement": "motility of cardiac fibroblasts, agent alone", "setting": "cardiac fibroblasts [1]; 10 μM alone, 24 h, compared to control", "result": "not altered"}, {"measurement": "migration following TGF-β induction in cardiac fibroblasts", "setting": "cardiac fibroblasts [1]; FIG. 1B", "result": "inhibit migration"}, {"measurement": "reduction of motility of TGFβ1-treated fibroblasts", "setting": "cardiac fibroblasts [1]; TGFβ1 10 ng/mL + agent 10 μM, 24 h", "result": 30, "unit": "%"}, {"measurement": "cardiomyocyte motility in the presence of TGFβ1", "setting": "cardiomyocytes", "result": "completely inhibited; also recorded: inhibit migration"}]}, {"molecule": "FRWLWRGGRWLWRF [CRF-5-5]", "values": [{"measurement": "CXCL10-induced gene expression on FB", "setting": "cardiac fibroblasts (CF)", "result": "altered"}, {"measurement": "CXCL10 inhibition of TGF-β-induced P38 MAPK-dependent extracellular matrix production", "setting": "cardiac fibroblasts [2]", "result": "altered"}, {"measurement": "CXCL10-induced gene expression on CM", "setting": "cardiomyocytes (CM)", "result": "altered"}, {"measurement": "CXCL10-suppressed growth factor-induced ECM production", "setting": "[3]", "result": "promote the disinhibition"}, {"measurement": "CXCL10-suppressed growth factor-induced intracellular P38 signaling", "setting": "[3]", "result": "promote the disinhibition"}, {"measurement": "CXCL10-suppressed growth factor-induced motility", "setting": "[3]", "result": "promote the disinhibition"}, {"measurement": "CXCL10 inhibition of TGF-β-induced matrix production", "setting": "[3]", "result": "interfered"}]}, {"molecule": "PESRVIKNLLRVVSKEKSRRSP [IP-10-2]", "values": [{"measurement": "number of viable cells (Calcein-AM uptake)", "setting": "primary lung fibroblasts [4]", "result": "no impact"}]}, {"molecule": "PESKVIKNLLKVASKERSKRSP [IP-10-1]", "values": [{"measurement": "number of viable cells (Calcein-AM uptake)", "setting": "primary lung fibroblasts [4]", "result": "no impact"}]}, {"molecule": "FAKAIKNFAKAVAKFA [IP-10-3, FAKAIKNFAKAVAKFA]", "values": [{"measurement": "number of viable cells (Calcein-AM uptake)", "setting": "primary lung fibroblasts [4]", "result": "no impact"}]}, {"molecule": "FRFLFRGGRFLFRF [CRF-5-3]", "values": [{"measurement": "CXCL10-induced gene expression on FB", "setting": "cardiac fibroblasts (CF)", "result": "altered"}, {"measurement": "CXCL10 inhibition of TGF-β-induced P38 MAPK-dependent extracellular matrix production", "setting": "cardiac fibroblasts [2]", "result": "altered"}, {"measurement": "CXCL10-induced gene expression on CM", "setting": "cardiomyocytes (CM)", "result": "altered"}, {"measurement": "CXCL10-suppressed growth factor-induced ECM production", "setting": "[3]", "result": "promote the disinhibition"}, {"measurement": "CXCL10-suppressed growth factor-induced intracellular P38 signaling", "setting": "[3]", "result": "promote the disinhibition"}, {"measurement": "CXCL10-suppressed growth factor-induced motility", "setting": "[3]", "result": "promote the disinhibition"}, {"measurement": "ECM alterations following TGF-β and/or CXCL10 treatment", "setting": "CM/CF co-cultures", "result": "CRF-5-3-mediated alterations"}]}, {"molecule": "CCO", "note": "[ethanol, reference compound]", "values": [{"measurement": "Calcein-AM positive cells, positive control for dead cells", "setting": "primary lung fibroblasts [4]; 70% ethanol in water, 30 minutes", "result": "elimination of the detected Calcein-AM positive cells"}]}, {"molecule": "transforming growth factor beta 1 [TGFβ1]", "values": [{"measurement": "fibroblast migration (wound closure), TGF-β alone", "setting": "primary lung fibroblasts [5]", "result": "significantly increased fibroblast migration; also recorded: significantly increased rate of wound closure"}, {"measurement": "αSMA expression, TGFβ1 alone", "setting": "cardiac fibroblasts [6]", "result": "drastically increased αSMA expression"}, {"measurement": "expression of pro-fibrotic mRNAs, TGF-β alone", "setting": "primary lung fibroblasts [7]", "result": "induced expression; also recorded: caused an induction"}, {"measurement": "increase of cardiac fibroblast motility relative to untreated cells", "setting": "cardiac fibroblasts [1]; TGFβ1 10 ng/mL alone, 24 h", "result": "over 3 fold"}, {"measurement": "collagen secretion, agent alone", "setting": "[8]", "result": "significant upregulation"}, {"measurement": "fibronectin secretion, agent alone", "setting": "[8]", "result": "significant upregulation"}]}]}
